Source: patent publication US3982931A, “N,N-di-sec.butyl-benzamide herbicides” (priority 1967, dated 1976)

Tests used:
Experiment in all cases: herbicidal activity, soil treatment one day after sowing
Format in all cases: in vivo
[1] = tested on: amaranthus retroflexus L.
Excerpt: (§1) The infesting species and the agrarian species have been indicated in Table 1 by letters, as follows:
A = amaranthus retroflexus L.
(§2) Method of evaluation of the results (of tests):
(§3) 1 slight differences with respect to the control;
(§4) 3 = considerable activity with damages that definitely impair the further development of most of the small plants; an activity degree already useful for practical purposes;
(§5) 4 = maximum of activity with lack of germination or total containment of the small plants in the emerging stage.
(§6) In the case of an intermediate activity between two classes of the scale, both values are recorded with the one which corresponds to the preeminent activity preceding.
(§7) TABLE 2 reports the activity data of other compounds that fall within the class which is the object of this invention.
(§8) TABLE 3 reports data on the herbicidal activity against infesting herbs, while TABLE 4 reports data concerning the activity on useful species of agricultural cultivations. These tables employ the criterion explained previously. […]

artemisia vulgaris L. = tested on: artemisia vulgaris L.
Excerpt: as §1
B = artemisia vulgaris L.
as §2, §3, §4, §5, §6, §7, §8

chenopodium album L. = tested on: chenopodium album L.
Excerpt: as §1, §2, §3, §4, §5, §6, §7, §8

[2] = tested on: echinocloa crus-galli R.S.
Excerpt: as §1
D = echinocloa crus-galli R.S.
as §2, §3, §4, §5, §6, §7, §8

setaria glauca L. = tested on: setaria glauca L.
Excerpt: as §1, §2, §3, §4, §5
In the case of an intermediate activity between two classes of the scale, both values are recorded with the one which corresponds to the preeminent activity preceding. […]
as §8

vicia sativa L. = tested on: vicia sativa L.
Excerpt: as §1, §2, §3, §4, §5, §6, §7

SMILES	activity on A, 0-4 scale ([1]; 6 kg/ha)	activity on B, 0-4 scale (artemisia vulgaris L.; 6 kg/ha)	activity on C, 0-4 scale (chenopodium album L.; 6 kg/ha)	activity on D, 0-4 scale ([2]; 6 kg/ha)	activity on E, 0-4 scale (setaria glauca L.; 6 kg/ha)	activity on F, 0-4 scale (vicia sativa L.; 6 kg/ha)	further results
O=C(O)c1ccc(Cl)c(Cl)c1 [3,4-dichloro-benzoic acid, reference compound]	0	0	0	0	0	0	
CCCCN(CCCC)C(=O)c1ccc(Cl)c(Cl)c1 [PA105, 3,4-dichloro-N,N-di-n.butyl-benzamide, reference compound]	1-2	1-2	1	1	2	0-1	activity on B, 0-4 scale (artemisia vulgaris L.; 3 kg/ha): 0-1; activity on C, 0-4 scale (chenopodium album L.; 3 kg/ha): 0-1; activity on D, 0-4 scale ([2]; 3 kg/ha): 0-1; activity on E, 0-4 scale (setaria glauca L.; 3 kg/ha): 1; activity on F, 0-4 scale (vicia sativa L.; 3 kg/ha): 0
CCCN(CCC)C(=O)c1ccc(Cl)cc1Cl [PA200, 2,4-dichloro-N,N-di-n-propyl-benzamide, reference compound]	3	2-3	2-3	2	1	0-1	
CC(C)CN(CC(C)C)C(=O)c1ccc(Cl)c(Cl)c1 [PA259, 3,4-dichloro-N,N-di-iso-butyl-benzamide, reference compound]	1-2	2	1-2			0-1	
CC(C)N(C(=O)c1ccc(Cl)cc1Cl)C(C)C [PA281, 2,4-dichloro-N,N-di-isopropyl-benzamide, reference compound]	1-2	2	0-1	0-1	0-1	0	
CCCCN(CCCC)C(=O)c1ccc(Cl)cc1Cl [PA282, 2,4-dichloro-N,N-di-n.butyl-benzamide, reference compound]	2	0	2	1	1	0-1	
CCN(CC)C(=O)c1ccc(Cl)cc1Cl [PA283, 2,4-dichloro-N,N-diethyl-benzamide, reference compound]	1	2	1-2	1	1	1	
CCCCN(CCCC)C(=O)c1cc(Cl)cc(Cl)c1 [PA294, 3,5-dichloro-N,N-di-n.butyl-benzamide, reference compound]	0-1	0-1	1	2	3	0	
O=C(O)c1cc(Cl)cc(Cl)c1Cl [PA304, 2,3,5-trichloro-benzoic acid, reference compound]	1	1	0	0	0	3	
CCCN(CCC)C(=O)c1cccc(Cl)c1 [PA322, 3,chloro-N,N-di-n.propyl-benzamide, reference compound]	1	1-2	0-1	1	0-1		
CCCCN(CC)C(=O)c1ccc(Cl)c(Cl)c1 [PA325, 3,4-dichloro-N-ethyl,N-n.butyl-benzamide, reference compound]	3	2	2	0-1	0-1	0	
CCN(CC)C(=O)c1cccc(C)c1 [PA383, 3,methyl-N,N-diethyl-benzamide, reference compound]	2	3	2	0-1	0-1	2	
CCCN(CCC)C(=O)c1cccc(C)c1 [PA384, 3,methyl-N,N-di-n.propyl-benzamide, reference compound]	1	2	2	1-2	0-1	1-2	
Cc1cccc(C(=O)N(C(C)C)C(C)C)c1 [PA385, 3,methyl-N,N-di-isopropyl-benzamide, reference compound]	1-2	2	1		0-1	0-1	
CCCCN(CCCC)C(=O)c1cccc(C)c1 [PA386, 3,methyl-N,N-di-n.butyl-benzamide, reference compound]	3	1-2	2-3	0-1	0-1	0-1	
CCCCN(CCCC)C(=O)c1cccc(Br)c1 [PA396, 3-bromo-N,N-di-n,butyl-benzamide, reference compound]	1	1-2	0-1	0-1	0	0	
O=C(O)c1cccc(Cl)c1 [PA439, 3,chloro-benzoic acid, reference compound]	0	0	0	0	0	0	
O=C(O)c1cc(Cl)cc(Cl)c1 [PA440, 3,5-dichloro-benzoic acid, reference compound]	0	0	0	0	0	0	
O=C(O)c1ccc(Cl)cc1Cl [PA441, 2,4-dichloro-benzoic acid, reference compound]	0	0	0	0	0	0	
Cc1cccc(C(=O)O)c1 [PA442, 3,methyl-benzoic acid, reference compound]	1	0	0	0	0	0	
CCC(C)N(C(=O)c1ccc(Br)c(Br)c1)C(C)CC (stereo not shown) [PA484, 3,4-dibromo-N,N-di-sec.butyl-benzamide]	2-3	2-3	2	3-4	4-3	0	activity on A, 0-4 scale ([1]; 4 kg/ha): 1-2; activity on B, 0-4 scale (artemisia vulgaris L.; 4 kg/ha): 1; activity on C, 0-4 scale (chenopodium album L.; 4 kg/ha): 1; activity on D, 0-4 scale ([2]; 4 kg/ha): 3; activity on E, 0-4 scale (setaria glauca L.; 4 kg/ha): 3; activity on F, 0-4 scale (vicia sativa L.; 4 kg/ha): 0
C=CCN(CC=C)C(=O)c1cccc(Br)c1 [PA499, 3-bromo-N,N-di-allyl-benzamide, reference compound]		3	3	3	3	3	activity on A, 0-4 scale ([1]; 4 kg/ha): 2-3; activity on B, 0-4 scale (artemisia vulgaris L.; 4 kg/ha): 3; activity on C, 0-4 scale (chenopodium album L.; 4 kg/ha): 2; activity on D, 0-4 scale ([2]; 4 kg/ha): 1; activity on E, 0-4 scale (setaria glauca L.; 4 kg/ha): 2; activity on F, 0-4 scale (vicia sativa L.; 4 kg/ha): 1
CCC(C)N(C(=O)c1cc(Cl)ccc1Br)C(C)CC (stereo not shown) [PA504, 2-bromo,5-chloro-N,N-di-sec.butyl-benzamide]	2	1-2	2	3-4	4	0-1	activity on D, 0-4 scale ([2]; 2 kg/ha): 2-3; activity on D, 0-4 scale ([2]; 3 kg/ha): 2-3; activity on D, 0-4 scale ([2]; 4 kg/ha): 3; activity on E, 0-4 scale (setaria glauca L.; 2 kg/ha): 2-3; activity on E, 0-4 scale (setaria glauca L.; 3 kg/ha): 3; activity on E, 0-4 scale (setaria glauca L.; 4 kg/ha): 3-4
CCC(C)N(CC(C)C)C(=O)c1ccc(Cl)c(Cl)c1 (stereo not shown) [PA566, 3,4-dichloro-N-isobutyl,N-sec.butyl-benzamide]	3	2-3	3		4	0-1	
CCC(C)N(C(=O)c1ccc(Cl)c(I)c1)C(C)CC (stereo not shown) [PA614, 4-chloro,3-iodo-N,N-di-sec.butyl-benzamide]	1	0-1	1	3		0	
